Here are results for 1 molecule from patent publication US20050261201A1, “Method of reducing C-reactive protein using growth hormone secretagogues” (Rejuvenon Corporation, priority 2004, published 2005).

The experiment relates to human CRP. The experiment is described as follows: CRP serum levels in CRP transgenic mice (ELISA). The note with it: daily oral gavage for 14 days, serum at Day 15, vs saline vehicle, n=10. In kind it is in vivo, C57BL/6J congenic CRP transgenic mice that express human CRP. On the procedure: The experiment was conducted to determine the effect of the growth hormone secretagogue RC-1141 on CRP serum levels. The compound RC-1141 was tested in C57BL/6J congenic CRP transgenic mice that express human CRP.
The establishment of a breeding colony of CRPtg C57BL/6J congenic mice has been described in Szalai, A. et al., “Human C-Reactive Protein is Protective Against Fatal Streptococcus pneumoniae Infection in Transgenic Mice,” J. Immunol. 155:2557-2563 (1995), the entire content of which is hereby incorporated by reference. The breeding colony was established by mating transgenic founder males with normal female C57BL/6J mice. The normal female C57BL/6J mice were obtained from Charles River Laboratories (Boston, Mass.). Transgenic founders were obtained from Dr. Ulrich Ruther (Institut für Molekularbiologie, Medizinische Hochschule, Hannover, Germany), and were descendants of transgenic mice originally described by Ciliberto, G., R. Arcone, E. F. Wagner, U. Rüther, “Inducible and tissue-specific expression of human C-reactive protein in transgenic mice” EMBO J, 6:4017 (1987), the entire content of which is hereby incorporated by reference. […]
CRP serum levels were measured using ELISA. […]
Concentration was determined by the ELISA described above. […]
In general terms: ELISA stands for enzyme-linked immunosorbent assay.

For `CN(C(=O)/C=C/CC1(N)CCC1)[C@H](Cc1ccc(-c2ccccc2)cc1)C(=O)N(C)[C@H](Cc1ccccc1)C(=O)N1CCC(O)CC1` [RC-1141, (2E)-4-(1-aminocyclobutyl)but-2-enoic acid N-((1R)-1-{N-[(1R)-1-benzyl-2-(4-hydroxypiperidin-1-yl)-2-oxoethyl]-N-methylcarbomoyl}-2-(biphenyl-4-yl)ethyl)-N-methylamide], the CRP serum levels result by setting is: (5 mg/kg body weight (low dose)) “significant decrease”; (10 mg/kg body weight (high dose)) “significant decrease”.
